The results in this text go back to the Kinase Knowledgebase extract (Sharma et al. 2016).

The experiment deals with ROCK2 (human) (UniProt O75116). Put plainly: Inhibition of ROCK2 Kinase Activity.
Chain of ROCK2 (human) (O75116 whole entry, looked up): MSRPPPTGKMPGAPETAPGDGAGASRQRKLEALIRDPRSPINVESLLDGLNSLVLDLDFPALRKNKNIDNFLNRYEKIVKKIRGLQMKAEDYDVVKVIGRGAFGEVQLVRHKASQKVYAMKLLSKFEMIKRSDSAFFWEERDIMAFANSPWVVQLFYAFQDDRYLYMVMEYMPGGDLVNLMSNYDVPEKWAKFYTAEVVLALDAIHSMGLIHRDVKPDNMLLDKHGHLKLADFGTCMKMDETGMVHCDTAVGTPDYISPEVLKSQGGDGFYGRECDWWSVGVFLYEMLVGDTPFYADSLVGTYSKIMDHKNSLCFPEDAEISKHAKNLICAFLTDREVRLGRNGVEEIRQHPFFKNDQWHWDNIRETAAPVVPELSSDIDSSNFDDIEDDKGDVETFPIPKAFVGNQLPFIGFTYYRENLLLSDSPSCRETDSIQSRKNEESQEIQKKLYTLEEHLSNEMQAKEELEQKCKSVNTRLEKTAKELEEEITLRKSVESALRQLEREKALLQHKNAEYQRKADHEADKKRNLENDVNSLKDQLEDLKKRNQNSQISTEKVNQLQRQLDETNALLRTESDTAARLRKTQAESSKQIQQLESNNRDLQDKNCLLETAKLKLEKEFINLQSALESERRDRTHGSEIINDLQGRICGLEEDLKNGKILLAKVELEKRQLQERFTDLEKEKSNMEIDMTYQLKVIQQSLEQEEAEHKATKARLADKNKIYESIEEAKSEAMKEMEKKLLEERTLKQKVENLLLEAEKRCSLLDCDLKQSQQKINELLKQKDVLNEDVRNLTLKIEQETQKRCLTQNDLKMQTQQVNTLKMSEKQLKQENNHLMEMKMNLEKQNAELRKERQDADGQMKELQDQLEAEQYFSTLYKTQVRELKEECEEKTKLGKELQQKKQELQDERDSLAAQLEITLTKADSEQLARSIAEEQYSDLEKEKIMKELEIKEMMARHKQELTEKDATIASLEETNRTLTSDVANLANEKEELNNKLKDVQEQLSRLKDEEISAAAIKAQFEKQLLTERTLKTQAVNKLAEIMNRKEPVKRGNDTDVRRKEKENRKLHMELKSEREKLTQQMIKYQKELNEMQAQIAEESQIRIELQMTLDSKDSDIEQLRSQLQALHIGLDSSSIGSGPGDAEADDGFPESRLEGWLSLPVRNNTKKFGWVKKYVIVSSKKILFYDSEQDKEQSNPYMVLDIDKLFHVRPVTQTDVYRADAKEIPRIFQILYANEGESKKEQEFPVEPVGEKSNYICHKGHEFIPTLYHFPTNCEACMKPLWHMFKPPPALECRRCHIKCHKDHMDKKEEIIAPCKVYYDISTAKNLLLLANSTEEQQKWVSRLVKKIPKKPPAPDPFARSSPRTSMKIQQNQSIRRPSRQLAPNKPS

As for `CN(CC(N)c1ccc(C(=O)Nc2ccncc2)cc1)C(=O)Cc1c[nH]c2ccccc12` (stereo not given), the half-maximal inhibitory concentration (IC50) fell in the range of 0.5 to 5 µM. For `NC(CC(=O)Nc1ccc2cc[nH]c2c1)c1ccc(C(=O)Nc2ccncc2)cc1` (stereo not given) the value was 0.05 to 0.5 µM; for `NC(c1ccc(C(=O)Nc2ccncc2)cc1)C1CCCN1C(=O)Cc1ccc(-c2ccccc2)cc1` (stereo not given), 0.5 to 5 µM; for `CN(CC(N)c1ccc(C(=O)Nc2ccncc2)cc1)C(=O)C1(c2ccc(Cl)c(Cl)c2)CCC1` (stereo not given), 0.5 to 5 µM. For `NC(CNC(=O)c1cnccn1)c1ccc(C(=O)Nc2ccncc2)cc1` (stereo not given) the value was 0.5 to 5 µM. For `NC(CNC(=O)CCC1CCCCC1)c1ccc(C(=O)Nc2ccncc2)cc1` (stereo not given), the 50% inhibitory concentration (IC50) fell in the range of 0.05 to 0.5 µM. Under `Cc1ccc(CNC(=O)CC(N)c2ccc(C(=O)Nc3ccncc3)cc2)cc1` (stereo not given) stands 0.05 to 0.5 µM; under `N#Cc1ccc(C(=O)NCC(N)c2ccc(C(=O)Nc3ccncc3)cc2)cc1` (stereo not given), 0.5 to 5 µM; under `NC(CC(=O)NCc1ccc(F)cc1)c1ccc(C(=O)Nc2ccncc2)cc1` (stereo not given), 0.05 to 0.5 µM. For `COc1cc(CCNC(=O)CC(N)c2ccc(C(=O)Nc3ccncc3)cc2)cc(OC)c1` (stereo not given) the value was 0.05 to 0.5 µM; for `COc1ccc2[nH]c(C(=O)NCC(N)c3ccc(C(=O)Nc4ccncc4)cc3)cc2c1` (stereo not given), 0.5 to 5 µM; for `NC(CNC(=O)C1(c2ccc(F)c(F)c2)CC1)c1ccc(C(=O)Nc2ccncc2)cc1` (stereo not given), 0.05 to 0.5 µM. `CC(C)(C(=O)NC[C@@H](N)c1ccc(C(=O)Nc2ccncc2)cc1)c1ccc(Cl)cc1` gave an IC50 of 0.05 to 0.5 µM. Under `COc1cccc(CC(=O)NCC(N)c2ccc(C(=O)Nc3ccncc3)cc2)c1` (stereo not given) stands 0.05 to 0.5 µM; under `N[C@H](CC(=O)NCc1ccc(F)cc1)c1ccc(C(=O)Nc2ccncc2)cc1`, 0.05 to 0.5 µM; under `NC(CC(=O)NC1c2ccccc2-c2ccccc21)c1ccc(C(=O)Nc2ccncc2)cc1` (stereo not given), 0.05 to 0.5 µM.

On to `Cc1cccc(CN2CCC(NC(=O)CC(N)c3ccc(C(=O)Nc4ccncc4)cc3)CC2)c1` (stereo not given), for which the concentration for half-maximal inhibition (IC50) was 0.05 to 0.5 µM. Turning to `NC(CNC(=O)CC1C=CCC1)c1ccc(C(=O)Nc2ccncc2)cc1` (stereo not given), the half-maximal inhibitory concentration (IC50) was in the range of 0.05 to 0.5 µM.

Molecule `Cn1cccc1C(=O)NCC(N)c1ccc(C(=O)Nc2ccncc2)cc1` (stereo not given) showed an IC50 of 0.5 to 5 µM. For the molecule `COc1ccc(C2(C(=O)N3CCCC3C(N)c3ccc(C(=O)Nc4ccncc4)cc3)CC2)cc1` (stereo not given), the half-inhibitory concentration (IC50) lay within 0.5 to 5 µM. For `NC(c1ccc(C(=O)Nc2ccncc2)cc1)C1CCCN1C(=O)Cc1cc(F)ccc1F` (stereo not given) the value was 0.5 to 5 µM. `NC(CNC(=O)c1ccc2ccccc2n1)c1ccc(C(=O)Nc2ccncc2)cc1` (stereo not given) had an IC50 of 0.05 to 0.5 µM. `CN(CC(N)c1ccc(C(=O)Nc2ccncc2)cc1)C(=O)C1(c2ccsc2)CC1` (stereo not given) showed an IC50 of 0.5 to 5 µM. For `CC(C)C(C(=O)N(C)CC(N)c1ccc(C(=O)Nc2ccncc2)cc1)c1ccc(Cl)cc1` (stereo not given) the value was 0.5 to 5 µM; for `COc1ccc(NC(=S)NCC(N)c2ccc(C(=O)Nc3ccncc3)cc2)cc1` (stereo not given), 0.5 to 5 µM. Under `NC(CC(=O)NCc1ccc(Br)cc1F)c1ccc(C(=O)Nc2ccncc2)cc1` (stereo not given) stands 0.05 to 0.5 µM. For `CN(CC(N)c1ccc(C(=O)Nc2ccncc2)cc1)C(=O)C(C)(C)c1ccc(Cl)cc1` (stereo not given) the value was 0.5 to 5 µM. For `CC(=NOCC(=O)NCC(N)c1ccc(C(=O)Nc2ccncc2)cc1)c1ccccc1` (stereo not given), the IC50 was 0.05 to 0.5 µM. Molecule `NC(CNC(=O)CCC1CCCC1)c1ccc(C(=O)Nc2ccncc2)cc1` (stereo not given) showed a concentration for half-maximal inhibition (IC50) of 0.05 to 0.5 µM. For `NC(CNC(=O)NCc1ccccc1)c1ccc(C(=O)Nc2ccncc2)cc1` (stereo not given) the value was 0.05 to 0.5 µM. Under `NC(CC(=O)NC1CCN(Cc2ccccc2)CC1)c1ccc(C(=O)Nc2ccncc2)cc1` (stereo not given) stands 0.05 to 0.5 µM; under `CN(CC(N)c1ccc(C(=O)Nc2ccncc2)cc1)C(=O)C1CCCc2sccc21` (stereo not given), 0.5 to 5 µM. Under `CN(CC(N)c1ccc(C(=O)Nc2ccncc2)cc1)C(=O)Cc1ccc(F)cc1Cl` (stereo not given) stands 0.5 to 5 µM. Regarding `NC(CC(=O)NC1CCCCC1)c1ccc(C(=O)Nc2ccncc2)cc1` (stereo not given), the IC50 is 0.05 to 0.5 µM.

`NC(CC(=O)NCc1ccccc1Br)c1ccc(C(=O)Nc2ccncc2)cc1` (stereo not given) yielded an IC50 of 0.05 to 0.5 µM. In the case of `NC(CC(=O)NCC1CCCO1)c1ccc(C(=O)Nc2ccncc2)cc1` (stereo not given), the half-maximal inhibitory concentration (IC50) was 0.05 to 0.5 µM.

Take `NC(CNC(=O)C1CCCCc2ccc(F)cc21)c1ccc(C(=O)Nc2ccncc2)cc1` (stereo not given): the IC50 was in the range of 0.05 to 0.5 µM. For `CCOc1ccccc1CNC(=O)CC(N)c1ccc(C(=O)Nc2ccncc2)cc1` (stereo not given), the IC50 is 0.05 to 0.5 µM.

Take `CN(CC(N)c1ccc(C(=O)Nc2ccncc2)cc1)C(=O)Cc1ccc(O)c([N+](=O)[O-])c1` (stereo not given): the half-inhibitory concentration (IC50) lay in the range of 0.05 to 0.5 µM.

Consider `NC(c1ccc(C(=O)Nc2ccncc2)cc1)C1CCCN1C(=O)Cc1ccc(Cl)cc1F` (stereo not given), for which the IC50 was in the range of 0.5 to 5 µM. Under `CCCCCCCCC(=O)NCC(N)c1ccc(C(=O)Nc2ccncc2)cc1` (stereo not given) stands 0.05 to 0.5 µM.

`COc1cccc(C(=O)NCC(N)c2ccc(C(=O)Nc3ccncc3)cc2)c1` (stereo not given): the concentration for half-maximal inhibition (IC50) lay in the range of 0.5 to 5 µM. Under `CC(C)CCC(=O)NCC(N)c1ccc(C(=O)Nc2ccncc2)cc1` (stereo not given) stands 0.5 to 5 µM; under `NC(c1ccc(C(=O)Nc2ccncc2)cc1)C1CCCN1C(=O)C1(c2ccc(F)c(F)c2)CCCC1` (stereo not given), 0.5 to 5 µM; under `NC(CC(=O)NC1Cc2ccccc2C1)c1ccc(C(=O)Nc2ccncc2)cc1` (stereo not given), 0.05 to 0.5 µM.
